In the supplement of paper PMC10307832:

Columns and labels:
Assay in all cases: relative viability (nuclei count vs DMSO), 5 days (fraction); higher = more cells survive
[1] = compound: CC(C)C[C@H](NC(=O)[C@H](Cc1ccccc1)NC(=O)c1cnccn1)B(O)O [Bortezomib] + CC(=O)c1c(C)c2cnc(Nc3ccc(N4CCNCC4)cn3)nc2n(C2CCCC2)c1=O [Palbociclib] (partner 0.5 µM)
In short: (§1)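 Medians of duplicate plates are given as relative viability. That measure is the nuclei count in treated wells divided by the count in vehicle wells. Counts were taken on 4× images of lung cancer cell lines in 1536-well plates, 5 days after pin-tool dosing the day after seeding with one drug alone or a fixed anchor-drug dose plus five library-drug doses (not always all listed) in √10 steps.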

[2] = compound: CC(C)C[C@H](NC(=O)[C@H](Cc1ccccc1)NC(=O)c1cnccn1)B(O)O [Bortezomib] + Cc1nc(NC(=O)N2CCC[C@H]2C(N)=O)sc1-c1ccnc(C(C)(C)C(F)(F)F)c1 [Alpelisib] (partner 2 µM)
In short: as §1

[3] = compound: CC1=CC(=NN1)NC2=CC(=NC(=N2)/C=C/C3=CC=CC=C3)N4CCN(CC4)C + CS(=O)(=O)CCNCc1ccc(-c2ccc3ncnc(Nc4ccc(OCc5cccc(F)c5)c(Cl)c4)c3c2)o1 [Lapatinib] (partner 2 µM)
In short: as §1

[4] = compound: COC1=CC(c2cc3ccccc3[nH]2)=N/C1=C\c1[nH]c(C)cc1C [Obatoclax] + N=C(N)NC(=N)NCCc1ccccc1 [Phenformin] (partner 250 µM)
In short: as §1

| Cell Line | relative viability ([1]; first compound 0.0002 µM) | relative viability ([1]; first compound 0.000632 µM) | relative viability ([1]; first compound 0.002 µM) | relative viability ([1]; first compound 0.006325 µM) | relative viability ([1]; first compound 0.02 µM) | relative viability ([2]; first compound 0.0002 µM) | relative viability ([2]; first compound 0.000632 µM) | relative viability ([2]; first compound 0.002 µM) | relative viability ([2]; first compound 0.006325 µM) | relative viability ([2]; first compound 0.02 µM) | relative viability ([3]; first compound 0.08 µM) | relative viability ([3]; first compound 0.253 µM) | relative viability ([3]; first compound 0.8 µM) | relative viability ([3]; first compound 2.53 µM) | relative viability ([3]; first compound 8 µM) | relative viability ([4]; first compound 0.01 µM) | relative viability ([4]; first compound 0.03162 µM) | relative viability ([4]; first compound 0.1 µM) | relative viability ([4]; first compound 0.3162 µM) | relative viability ([4]; first compound 1 µM) |
| --- | --- | --- | --- | --- | --- | --- | --- | --- | --- | --- | --- | --- | --- | --- | --- | --- | --- | --- | --- | --- |
| NCI-H2023 | 0.303 | 0.345 | 0.332 | 0.0803 | 0.0773 | 0.525 | 0.612 | 0.74 | 0.383 | 0.0813 | 0.849 | 0.92 | 0.765 | 0.0727 | 0.0496 | 0.387 | 0.438 | 0.425 | 0.293 | 0.152 |
| NCI-H358 | 0.158 | 0.11 | 0.0987 | 0.0826 | 0.0983 | 0.782 | 0.873 | 0.613 | 0.161 | 0.162 | 0.511 | 0.471 | 0.335 | 0.147 | 0.134 | 0.309 | 0.365 | 0.432 | 0.339 | 0.217 |
| SW 1573 | 0.346 | 0.419 | 0.171 | 0.055 | 0.0399 | 0.833 | 0.774 | 0.813 | 0.164 | 0.0782 | 1.08 | 1.34 | 1.11 | 0.906 | 0.134 | 0.333 | 0.31 | 0.282 | 0.24 | 0.153 |
| NCI-H1993 | 0.569 | 0.737 | 0.666 | 0.369 | 0.359 | 0.697 | 0.617 | 0.708 | 0.462 | 0.484 | 0.76 |  | 0.772 | 0.605 | 0.561 | 0.481 | 0.537 | 0.531 | 0.478 | 0.48 |
| NCI-H661 | 0.4 | 0.409 | 0.434 | 0.284 | 0.203 | 0.582 | 0.501 | 0.625 | 0.602 | 0.216 | 0.489 | 0.53 | 0.57 | 0.419 | 0.146 | 0.284 | 0.256 | 0.262 | 0.263 | 0.234 |
| UMC-11 | 0.3 | 0.334 | 0.294 | 0.295 | 0.214 | 0.842 | 0.994 | 1.09 | 0.223 | 0.136 | 0.9 | 0.758 | 0.63 | 0.152 | 0.128 | 0.303 | 0.294 | 0.291 | 0.272 | 0.242 |
| NCI-H520 | 0.198 | 0.18 | 0.169 | 0.141 | 0.131 | 0.981 | 0.935 | 0.91 | 0.155 | 0.135 | 0.831 | 0.887 | 0.573 | 0.182 | 0.0952 | 0.677 | 0.562 | 0.589 | 0.532 | 0.455 |
| ChaGo-K-1 | 0.956 | 0.903 | 0.942 | 0.382 | 0.136 |  |  |  |  |  |  |  |  |  |  | 0.511 | 0.506 | 0.444 | 0.462 | 0.527 |
| NCI-H2085 | 0.464 | 0.475 | 0.458 | 0.253 | 0.232 | 0.898 | 1.09 |  | 0.279 | 0.233 | 0.633 | 0.804 | 0.841 | 0.452 | 0.309 | 0.707 | 0.668 | 0.662 | 0.581 | 0.317 |
| NCI-H1703 |  |  |  |  |  | 0.32 | 0.256 | 0.131 | 0.134 | 0.0835 | 1.11 | 0.975 | 0.373 | 0.177 | 0.167 |  |  |  |  |  |
| NCI-H1650 | 0.342 | 0.312 | 0.136 | 0.117 | 0.146 |  |  |  |  |  | 0.775 | 0.739 | 0.946 | 0.109 | 0.0756 | 0.429 | 0.427 | 0.494 | 0.449 | 0.295 |
| NCI-H522 | 0.932 | 0.982 | 1.1 | 0.35 | 0.343 |  |  |  |  |  |  |  |  |  |  | 0.614 | 0.62 | 0.633 | 0.688 | 0.603 |
| LCLC-103H | 0.475 | 0.462 | 0.419 | 0.324 | 0.254 | 0.955 | 0.893 | 1.02 | 1.07 | 0.166 |  |  |  |  |  | 0.317 | 0.28 | 0.327 | 0.321 | 0.34 |
| NCI-H1563 |  |  |  |  |  | 0.882 | 0.848 | 0.844 | 0.505 | 0.489 | 0.905 | 0.784 | 0.91 | 0.667 | 0.403 | 0.621 | 0.696 | 0.629 | 0.683 | 0.586 |
| NCI-H1623 |  |  |  |  |  |  |  |  |  |  |  |  |  |  |  | 0.626 | 0.578 | 0.515 | 0.598 | 0.568 |
| NCI-H2342 | 0.578 | 0.502 | 0.54 | 0.534 | 0.357 |  |  |  |  |  |  |  |  |  |  | 0.744 | 0.573 | 0.737 | 0.48 | 0.584 |
| IA-LM |  |  |  |  |  | 0.773 | 0.669 | 0.561 | 0.0626 | 0.0159 |  | 0.885 | 0.961 | 0.638 | 0.113 |  |  |  |  |  |
| EBC-1 |  |  |  |  |  | 0.869 | 0.727 | 0.29 | 0.126 | 0.0969 | 0.214 | 0.223 | 0.254 | 0.209 | 0.153 |  |  |  |  |  |
| NCI-H1648 | 0.208 | 0.296 | 0.258 | 0.261 | 0.275 |  |  |  |  |  |  |  |  |  |  |  |  |  |  |  |
| NCI-H441 | 0.22 | 0.2 | 0.129 | 0.109 | 0.101 | 0.613 | 0.58 | 0.19 | 0.132 | 0.111 |  |  |  |  |  | 0.664 | 0.79 | 0.771 | 0.614 | 0.475 |
| NCI-H1299 |  |  |  |  |  | 1.02 | 1.07 | 1.08 | 0.89 | 0.304 | 0.955 | 0.977 | 0.982 | 0.685 | 0.257 |  |  |  |  |  |
| NCI-H596 |  |  |  |  |  | 0.541 | 0.431 | 0.42 | 0.174 | 0.128 | 0.976 | 1.09 | 0.912 | 0.505 | 0.286 | 0.768 | 0.764 | 0.741 | 0.711 | 0.583 |
